In one assay the test system is L-selectin. To be noted: in vitro, plastic plate; BIOCHEM. BIOPHY. RES. COM. 190, 426 (1993); cited from earlier work.
Assay [1] has as its system lung injury model, activation of whole body complements by CVF. To be noted: INT. IMMUNOL. 7, 1107 (1995); cited from earlier work.
The test system of assay [2] is lung injury model, lgG immunocomplex. To be noted: INT. IMMUNOL. 7, 1107 (1995); cited from earlier work.
Assay [3] concerns lung damage model induced by cobra venom factor (CVF); bleeding. The assay can be described thus: Anti-inflammatory action to lung damage model induced by CVF: index of bleeding (hemoglobin absorbance, 541 nm, in lung homogenate supernatant). It counts as in vivo, Lewis rats. Particulars: for inhibition in vivo at 0.2 mg: Rattus norvegicus, iv, 0.5 h, read-out: Inhibition rate (%), index of bleeding. How it is done: (§1) Anti-inflammatory action to lung damage model induced by CVF Compounds obtained by Examples and an exemplary known compound (sulfatide) were selected as Test Compounds to check an inflammatory action thereof to a lung damage model induced by cobra venom factor (CVF), in accordance with the method described by M. S. Mulligan et al ["J. IMMUNOL.", Vol.151, page 6410 (1993); and "INT. IMMUNOL.", Vol. 7, page 1107 (1995)].
(§2) Namely, the test compound was intravenously injected by an amount of 0.2 mg/rat to test animals (Lewis rats, age of 8 weeks, 5 animals in each group). After lapsed 5 minutes from administration, CVF (20U/2 ml/kg) was administered in a tail vein, and after 30 minutes, a laparotomy was carried out under nembutal anesthesia to perfuse the lung with phosphate-buffered saline (PBS, pH7.4) by injecting the same from right ventricle and to exenterate the lung. The extracted lung was homogenized with phosphate buffer (pH 7.4), centrifuged to collect a supernatant, and determined absorbance which was admitted as index of bleeding (It measures an amount of hemoglobin and thus detection wave-length was set to 541 nm).
(§3) Each inhibition rate (%) was calculated by
(§4) 100×[1-(value of test compound-value of negative control)/(value of positive control-value of negative control)].

In assay [4] the test system is lung damage model induced by cobra venom factor (CVF); infiltration in neutrocyte (myeloperoxidase). The assay can be described thus: Anti-inflammatory action to lung damage model induced by CVF: myeloperoxidase activity as index of infiltration in neutrocyte. Particulars: for inhibition in vivo at 0.2 mg: Rattus norvegicus, iv, 0.5 h, read-out: Inhibition rate (%), myeloperoxidase activity as index of infiltration in neutrocyte. It counts as in vivo, Lewis rats. As for the experimental part:
as §1, §2
On the other hand, the precipitation obtained by centrifugation was sonicated in the presence of cetrimide and centrifuged to obtain a supernatant, an activity myeloperoxidase therein being measured as an index of infiltration in neutrocyte.
as §3, §4

Turning to `CCCCCCCCCCCCCCC(CCCCCCCCCCCCCC)CO[C@@H]1O[C@H](CO)[C@@H](O[C@@H]2O[C@H](CO)[C@H](O)[C@H](OS(=O)(=O)O)[C@H]2O)[C@H](O)[C@H]1O` [2-tetradesyl hexadesyl O-β-D-galactopyranosyl-(1→4)-β-D-glucopyranoside 3'-sulfate], the “binding specificity to L-selectin” value with L-selectin is on record as “show a binding specificity to L-selectin”.
For `CCCCCCCCCCCCCCC(CCCCCCCCCCCCCC)CO[C@@H]1O[C@H](CO)[C@H](O)[C@H](OS(=O)(=O)O)[C@H]1O` [2-tetradesyl hexadesyl β-D-galactopyranoside 3-sulfate], the inflammation inhibition effect entry in assay [1] and in assay [2] was “shows inflammation inhibition effect” in each case. In the assay on L-selectin, the “binding specificity to L-selectin” value was “show a binding specificity to L-selectin”.
In the case of `CCCC(CCC)CO[C@@H]1O[C@H](CO)[C@@H](OP(=O)(O)O)[C@H](OP(=O)(O)O)[C@H]1OP(=O)(O)O` [Example 20, Hexasodium 2-propylpentyl δ-D-glucopyranoside 2,3,4-triphosphate], the inhibition in vivo at 0.2 mg in assay [3] turned out to be 45%; in assay [4] it was 40%.
In the same order, the values of `CCCC(CCC)CO[C@@H]1O[C@H](CO)[C@@H](O[C@@H]2O[C@H](CO)[C@H](OP(=O)(O)O)[C@H](OP(=O)(O)O)[C@H]2O)[C@H](O)[C@H]1O` [Example 21, Tetrasodium 2-propylpentyl O-β-D-galactopyranosyl-(1→4)-β-D-glucopyranoside 3',4'-diphosphate] are 64% and 52%.
Turning to `CCCCCCCCCCCCCCC(CCCCCCCCCCCCCC)CO[C@@H]1O[C@H](CO)[C@@H](O[C@@H]2O[C@H](CO)[C@H](OP(=O)(O)O)[C@H](OP(=O)(O)O)[C@H]2O)[C@H](O)[C@H]1O` [Example 22, Tetrasodium 2-tetradecylhexadecyl O-β-D-galactopyranosyl-(1→4)-β-D-glucopyranoside 3',4'-diphosphate], the inhibition in vivo at 0.2 mg worked out at 65% in assay [3] and 58% in assay [4].
In the same order, the values of `CCCC(CCC)CO[C@@H]1O[C@H](CO)[C@H](O)[C@H](OS(=O)(=O)O)[C@H]1O[C@@H]1O[C@@H](C)[C@@H](O)[C@@H](O)[C@@H]1O` [Example 23-1, Sodium 2-propylpentyl O-α-L-fucopyranosyl-(1→2)-β-D-galactopyranoside 3-sulfate] are 53% and 51%.
Turning to `CCCC(CCC)CO[C@@H]1O[C@H](CO)[C@H](O)[C@H](OP(=O)(O)O)[C@H]1O[C@@H]1O[C@@H](C)[C@@H](O)[C@@H](O)[C@@H]1O` [Example 23-2, disodium 2-propylpentyl O-α-L-fucopyranosyl-(1→2)-β-D-galactopyranoside 3-phosphate], the inhibition in vivo at 0.2 mg in assay [3] worked out at 51%; in assay [4], 49%.
The like results for `CCCC(CCC)CO[C@@H]1O[C@H](CO)[C@H](O)[C@H](OS(=O)(=O)O)[C@H]1O[C@@H]1O[C@@H](C)[C@@H](O)[C@@H](OS(=O)(=O)O)[C@@H]1O` [Example 24-1, Disodium 2-propylpentyl O-α-L-fucopyranosyl-(1→2)-β-D-galactopyranoside 3,3'-disulfate] were, in that order, 54% and 47%.
The like results for `CCCC(CCC)CO[C@@H]1O[C@H](CO)[C@H](O)[C@H](OP(=O)(O)O)[C@H]1O[C@@H]1O[C@@H](C)[C@@H](O)[C@@H](OP(=O)(O)O)[C@@H]1O` [Example 24-2, tetrasodium 2-propylpentyl O-α-L-fucopyranosyl-(1→2)-β-D-galactopyranoside 3,3'-diphosphate] were, in that order, 50% and 49%.
Regarding `CCCC(CCC)CO[C@@H]1O[C@H](COS(=O)(=O)O)[C@H](O)[C@H](OS(=O)(=O)O)[C@H]1O[C@@H]1O[C@@H](C)[C@@H](O)[C@@H](O)[C@@H]1O` [Example 25, Disodium 2-propylpentyl O-α-L-fucopyranosyl-(1→2)-β-D-galactonyranoside 3,6-disulfate], the inhibition in vivo at 0.2 mg in assay [3] stood at 56%; in assay [4], 50%.
The like results for `CCCC(CCC)CO[C@@H]1O[C@H](COS(=O)(=O)O)[C@H](O)[C@H](OS(=O)(=O)O)[C@H]1O[C@@H]1O[C@@H](C)[C@@H](O)[C@@H](OS(=O)(=O)O)[C@@H]1O` [Example 26, Trisodium 2-propylpentyl O-α-L-fucopyranosyl-(1→2)-β-D-galactopyranoside 3,3',6-trisulfate] were, in that order, 56% and 50%.
The like results for `CCCCCCCCCCCCCCC(CCCCCCCCCCCCCC)CO[C@@H]1O[C@H](CO)[C@H](O)[C@H](OS(=O)(=O)O)[C@H]1O[C@@H]1O[C@@H](C)[C@@H](O)[C@@H](O)[C@@H]1O` [Example 27-1, Sodium 2-tetradecylhexadecyl O-α-L-fucopyranosyl-(1→2)-β-D-galactopyranoside 3-sulfate] were, in that order, 65% and 61%.
For `CCCCCCCCCCCCCCC(CCCCCCCCCCCCCC)CO[C@@H]1O[C@H](CO)[C@H](O)[C@H](OP(=O)(O)O)[C@H]1O[C@@H]1O[C@@H](C)[C@@H](O)[C@@H](O)[C@@H]1O` [Example 27-2, disodium 2-tetradecylhexadecyl O-α-L-fucopyranosyl-(1→2)-β-D-galactopyranoside 3-phosphate], the inhibition in vivo at 0.2 mg is 62% in assay [3] and 58% in assay [4].
The like results for `CCCCCCCCCCCCCCC(CCCCCCCCCCCCCC)CO[C@@H]1O[C@H](CO)[C@H](O)[C@H](OS(=O)(=O)O)[C@H]1O[C@@H]1O[C@@H](C)[C@@H](O)[C@@H](OS(=O)(=O)O)[C@@H]1O` [Example 28-1, disodium 2-tetradecylhexadecyl O-α-L-fucopyranosyl-(1→2)-β-D-galactopyranoside 3,3'-disulfate] were, in that order, 63% and 60%.
As for `CCCCCCCCCCCCCCC(CCCCCCCCCCCCCC)CO[C@@H]1O[C@H](CO)[C@H](O)[C@H](OP(=O)(O)O)[C@H]1O[C@@H]1O[C@@H](C)[C@@H](O)[C@@H](OP(=O)(O)O)[C@@H]1O` [Example 28-2, tetrasodium 2-tetradecylhexadecyl O-α-L-fucopyranosyl-(1→2)-β-D-galactopyranoside 3,3'-diphosphate], the inhibition in vivo at 0.2 mg in assay [3] came out at 63%; in assay [4], 55%.
In the same order, the values of `CCCCCCCCCCCCCCC(CCCCCCCCCCCCCC)CO[C@@H]1O[C@H](COS(=O)(=O)O)[C@H](O)[C@H](OS(=O)(=O)O)[C@H]1O[C@@H]1O[C@@H](C)[C@@H](O)[C@@H](O)[C@@H]1O` [Example 29, Disodium 2-tetradecylhexadesyl O-α-L-fuconyranosyl-(1→2)-β-D-galactopyranoside 3,6-disulfate] are 67% and 65%.
Consider `CCCCCCCCCCCCCCC(CCCCCCCCCCCCCC)CO[C@@H]1O[C@H](COS(=O)(=O)O)[C@H](O)[C@H](OS(=O)(=O)O)[C@H]1O[C@@H]1O[C@@H](C)[C@@H](O)[C@@H](OS(=O)(=O)O)[C@@H]1O` [Example 30, Trisodium 2-tetradecylhexadecyl O-α-L-fucopyranosyl-(1→2)-β-D-galactopyranoside 3,3',6-trisulfate], for which the inhibition in vivo at 0.2 mg stood at 70% in assay [3] and 62% in assay [4].
With Sulfatide [reference compound], the “Inhibition rate (%), index of bleeding” value in assay [3] (0.2 mg/rat i.v., 5 min before CVF (20U/2 ml/kg, tail vein), hemoglobin absorbance at 541 nm, Table 1) is listed as 53%. The “Inhibition rate (%), myeloperoxidase activity as index of infiltration in neutrocyte” value in assay [4] (0.2 mg/rat i.v., 5 min before CVF (20U/2 ml/kg, tail vein), lung precipitation, Table 2) was determined as 50%. In addition, the inflammation inhibition effect result in assay [1] and in assay [2] was “shows inflammation inhibition effect” each time.

These data come from US5869460A, “Sulfated and phosphated saccharide derivatives, process for the preparation of the same and use thereof” (Sanwa Kaguku Kenkyusho Co., Ltd., priority 1995, dated 1999).
